PubChem BioAssay AID1963847 (Molecular Pharmacology Branch, DTP, NCI, 2024)
pIC50: −log10 of the molar value.

Test system: 415267-285-R-J2-PDC complex spheroid viability
Assay: Anticancer human tumor 415267-285-R-J2-PDC patient-derived breast carcinoma cell line growth inhibition [POLQ]
Settings: for pIC50: curve of first compound; for viability, T/C: stronger effect = lower value
Method in brief: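 Growth inhibition in 3D: complex spheroids (tumor PDC, HUVEC, MSC) treated with POLQ inhibitor combinations; where Cmax unknown, highest tested concentration 10 microM, except SN-38 at 1 microM.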

[1] = second compound 0.0316 µM, first compound 0.0316 µM
[2] = second compound 0.0316 µM, first compound 0.1 µM
[3] = second compound 0.0316 µM, first compound 0.316 µM
[4] = second compound 0.0316 µM, first compound 1 µM
[5] = second compound 0.0316 µM, first compound 3.16 µM
[6] = second compound 0.0316 µM, first compound 10 µM
[7] = second compound 0.1 µM, first compound 0.0316 µM
[8] = second compound 0.1 µM, first compound 0.1 µM
[9] = second compound 0.1 µM, first compound 0.316 µM
[10] = second compound 0.1 µM, first compound 1 µM
[11] = second compound 0.1 µM, first compound 3.16 µM
[12] = second compound 0.1 µM, first compound 10 µM
[13] = second compound 0.316 µM, first compound 0.0316 µM
[14] = second compound 0.316 µM, first compound 0.1 µM
[15] = second compound 0.316 µM, first compound 0.316 µM
[16] = second compound 0.316 µM, first compound 1 µM
[17] = second compound 0.316 µM, first compound 3.16 µM
[18] = second compound 0.316 µM, first compound 10 µM
[19] = second compound 1 µM, first compound 0.0316 µM
[20] = second compound 1 µM, first compound 0.1 µM
[21] = second compound 1 µM, first compound 0.316 µM
[22] = second compound 1 µM, first compound 1 µM
[23] = second compound 1 µM, first compound 3.16 µM
[24] = second compound 1 µM, first compound 10 µM
[25] = second compound 3.16 µM, first compound 0.0316 µM
[26] = second compound 3.16 µM, first compound 0.1 µM
[27] = second compound 3.16 µM, first compound 0.316 µM
[28] = second compound 3.16 µM, first compound 1 µM
[29] = second compound 3.16 µM, first compound 3.16 µM
[30] = second compound 3.16 µM, first compound 10 µM
[31] = second compound 10 µM, first compound 0.0316 µM
[32] = second compound 10 µM, first compound 0.1 µM
[33] = second compound 10 µM, first compound 0.316 µM
[34] = second compound 10 µM, first compound 1 µM
[35] = second compound 10 µM, first compound 3.16 µM
[36] = second compound 10 µM, first compound 10 µM
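Also: spheroids exposed to compounds for one week before readout.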
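For viability, T/C in this document: luminescence used as stand-in measure of viable cells; 100% = DMSO vehicle control viability.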

`CC1COCCN1c1cc(-c2ccnn2C)c2ccnc(-c3ccn[nH]3)c2n1` (stereo unspecified) + Cc1cccc(N(C)C(=O)C2C(O)CCN2c2nc(C)cc(C(F)(F)F)c2C#N)c1 showed a pIC50 (second compound 0.0316 µM) of over 7.50, a pIC50 (second compound 0.1 µM) of over 7.50 and a pIC50 (second compound 0.316 µM) of over 7.50. The pIC50 (second compound 1 µM) was 7.47, the pIC50 (second compound 3.16 µM) was 7.47 and the pIC50 (second compound 10 µM) was 7.44. The viability, T/C [1] was 44%, the viability, T/C [2] was 17.2% and the viability, T/C [3] was 6.77%. For the same molecule, the viability, T/C [4] was 4.72%, the viability, T/C [5] was 4.84% and the viability, T/C [6] was 4.51%. The viability, T/C [7] was 41.2%, the viability, T/C [8] was 11.3% and the viability, T/C [9] was 6.11%. It also gave a viability, T/C [10] of 4.5%, a viability, T/C [11] of 4.14% and a viability, T/C [12] of 5.26%. For the same molecule, the viability, T/C [13] was 47.2%, the viability, T/C [14] was 13.3% and the viability, T/C [15] was 5.28%. The viability, T/C [16] was 4.19%, the viability, T/C [17] was 4.21% and the viability, T/C [18] was 4.67%. For the same molecule, the viability, T/C [19] was 52.6%, the viability, T/C [20] was 10.9% and the viability, T/C [21] was 6.08%. For the same molecule, the viability, T/C [22] was 4.95%, the viability, T/C [23] was 4.35% and the viability, T/C [24] was 4.81%. It also gave a viability, T/C [25] of 52.2%, a viability, T/C [26] of 10.7% and a viability, T/C [27] of 5.26%. For the same molecule, the viability, T/C [28] was 4.41%, the viability, T/C [29] was 4.33% and the viability, T/C [30] was 4.61%. The viability, T/C [31] was 53.4%, the viability, T/C [32] was 22.9% and the viability, T/C [33] was 5.93%. The viability, T/C [34] was 4.73%, the viability, T/C [35] was 5.68% and the viability, T/C [36] was 4.55%.
In the case of `CCc1cc2c(N3CCc4c(cc(Cn5ccnc5)cc4-c4cn(C)nc4C(F)(F)F)C3=O)ccnc2c(OC)n1` + Cc1cccc(N(C)C(=O)C2C(O)CCN2c2nc(C)cc(C(F)(F)F)c2C#N)c1, the pIC50 (second compound 0.0316 µM) was under 5.00, the pIC50 (second compound 0.1 µM) was under 5.00 and the pIC50 (second compound 0.316 µM) was under 5.00. It also gave a pIC50 (second compound 1 µM) of under 5.00, a pIC50 (second compound 3.16 µM) of under 5.00 and a pIC50 (second compound 10 µM) of under 5.00. For the same molecule, the viability, T/C [1] was 88.4%, the viability, T/C [2] was 94.8% and the viability, T/C [3] was 88.7%. For the same molecule, the viability, T/C [4] was 86.2%, the viability, T/C [5] was 92.8% and the viability, T/C [6] was 79.2%. For the same molecule, the viability, T/C [7] was 102%, the viability, T/C [8] was 99.8% and the viability, T/C [9] was 80.2%. It also gave a viability, T/C [10] of 89%, a viability, T/C [11] of 95.4% and a viability, T/C [12] of 77.2%. It also gave a viability, T/C [13] of 105%, a viability, T/C [14] of 96.1% and a viability, T/C [15] of 88.5%. The viability, T/C [16] was 88.7%, the viability, T/C [17] was 89.8% and the viability, T/C [18] was 88.7%. For the same molecule, the viability, T/C [19] was 92.3%, the viability, T/C [20] was 91.5% and the viability, T/C [21] was 88.1%. For the same molecule, the viability, T/C [22] was 88.2%, the viability, T/C [23] was 91.2% and the viability, T/C [24] was 86.2%. For the same molecule, the viability, T/C [25] was 102%, the viability, T/C [26] was 98.3% and the viability, T/C [27] was 82.3%. The viability, T/C [28] was 101%, the viability, T/C [29] was 92.2% and the viability, T/C [30] was 85.4%. The viability, T/C [31] was 100%, the viability, T/C [32] was 100% and the viability, T/C [33] was 99.6%. It also gave a viability, T/C [34] of 99.8%, a viability, T/C [35] of 82.5% and a viability, T/C [36] of 77.8%.
`COc1ccc([C@@H](O)c2cc(-c3ncnc4cc(N5CCOCC5)ccc34)c(F)cc2Cl)nn1` + Cc1cccc(N(C)C(=O)C2C(O)CCN2c2nc(C)cc(C(F)(F)F)c2C#N)c1 showed a pIC50 (second compound 0.0316 µM) of 5.12, a pIC50 (second compound 0.1 µM) of 5.11 and a pIC50 (second compound 0.316 µM) of 5.13. For the same molecule, the pIC50 (second compound 1 µM) was 5.12, the pIC50 (second compound 3.16 µM) was 5.14 and the pIC50 (second compound 10 µM) was 5.32. The viability, T/C [1] was 89.5%, the viability, T/C [2] was 103% and the viability, T/C [3] was 98.9%. The viability, T/C [4] was 102%, the viability, T/C [5] was 74% and the viability, T/C [6] was 42.7%. It also gave a viability, T/C [7] of 93.9%, a viability, T/C [8] of 102% and a viability, T/C [9] of 110%. For the same molecule, the viability, T/C [10] was 91%, the viability, T/C [11] was 82.1% and the viability, T/C [12] was 40.9%. The viability, T/C [13] was 99.3%, the viability, T/C [14] was 102% and the viability, T/C [15] was 98.5%. The viability, T/C [16] was 100%, the viability, T/C [17] was 81.3% and the viability, T/C [18] was 39%. It also gave a viability, T/C [19] of 99%, a viability, T/C [20] of 91.3% and a viability, T/C [21] of 92.7%. For the same molecule, the viability, T/C [22] was 93.2%, the viability, T/C [23] was 69.4% and the viability, T/C [24] was 44%. The viability, T/C [25] was 93.1%, the viability, T/C [26] was 100% and the viability, T/C [27] was 98%. The viability, T/C [28] was 88.9%, the viability, T/C [29] was 75.5% and the viability, T/C [30] was 39.9%. The viability, T/C [31] was 101%, the viability, T/C [32] was 99.3% and the viability, T/C [33] was 94.5%. The viability, T/C [34] was 86%, the viability, T/C [35] was 59.7% and the viability, T/C [36] was 31.6%.
